Test system: K562 cells transfected with the alpha4 integrin subunit
Settings: ligand alone
Description: K562 cells express the betal integrin subunit, but not the alpha4 integrin subunit. Staining was quantified by FLOW cytometry, which was performed on a Coulter® XL-MCL™ Flow Cytometer (Beckman Coulter, Inc.; Fullerton, Calif.). Cells were harvested and adjusted to a concentration of 1×10^6 cells/ml in TBS plus 1 mM CaCl2 and MnCl2. Fc-ligand antibody conjugates, Fc fragments, or ligands were then incubated at various concentrations with cells for 1 hour at room temperature. Cells were centrifuged at 1000 RPM for 5 minutes, liquid was aspirated, and cells were resuspended and spun down again. Cells were then incubated with a detecting agent, e.g., 1:1000 streptavidin-PE or 1:500 anti-human Fc-FITC (Sigma-Aldrich Co.) for 1 h at room temperature. Cells were washed two times as described above and then resuspended in PBS at a concentration of 1×10^6 cells/ml. Cellular fluorescence was visualized using a fluorescent microscope.

`Cc1ccccc1NC(=O)Nc1ccc(CC(=O)N[C@@H](CCCCNC(=O)/C=C/c2cccnc2)C(=O)N[C@@H](CCCC(=O)O)C(=O)NC2(C(=O)NCCOCCOCCNC(=O)CCC(=O)N[C@@H](Cc3ccc(O)c(O)c3)C(=O)NCCOCCOCCNC(=O)CCC(=O)NCCOCCOCCNC(=O)CCC(=O)N[C@@H](CCCCNC(=O)CCCC[C@@H]3SC[C@@H]4NC(=O)N[C@@H]43)C(N)=O)CCCCC2)cc1` [Ligand 2A-DOPA-Biotin] showed an IC50 of 2 pM.
